In patent US20200093807A1, “NEW USE OF RIFAMYCIN-NITROIMIDAZOLE CONJUGATE MOLECULE” (TenNor Therapeutics Limited, priority 2017, published 2020):
Values after ≈ are worked out from the molar mass of the structure shown.

How the values were obtained:
Format in all cases: cell-based
[1] = test system: Bifidobacterium longum ATCC 15707; assay: MIC, anaerobic agar dilution (CLSI); settings: ATCC15707, 35° C., 42-48 hours
[2] = test system: Gardnerella vaginalis ATCC 49145; assay: MIC, anaerobic agar dilution (CLSI); settings: ATCC49145, 35° C., 42-48 hours
[3] = test system: Bacteroides vulgatus MMX 8348; assay: MIC, anaerobic agar dilution (CLSI); settings: Phocaeicola vulgatus, MMX8348, 35° C., 42-48 hours
[4] = test system: Bacteroides uniformis MMX 1277; assay: MIC, anaerobic agar dilution (CLSI); settings: MMX1277; Bacteroides uniformis MMX 1277; anaerobic, 35° C., 42-48 hours; read-out: MIC
[5] = test system: Prevotella disiens MMX 3446; assay: MIC, anaerobic agar dilution (CLSI); settings: MMX3446, 35° C., 42-48 hours
[6] = test system: Mobiluncus (curtisii subsp. curtisii) ATCC 35241; assay: MIC, anaerobic agar dilution (CLSI); settings: ATCC35241, 35° C., 42-48 hours
[7] = test system: Fusobacterium nucleatum ATCC 25586; assay: MIC, anaerobic agar dilution (CLSI); settings: ATCC25586, 35° C., 42-48 hours
[8] = test system: Prevotella bivia ATCC 29303; assay: MIC, anaerobic agar dilution (CLSI); settings: ATCC29303, 35° C., 42-48 hours
[9] = test system: Fusobacterium nucleatum ATCC 10953; assay: MIC, anaerobic agar dilution (CLSI); settings: ATCC10953, 35° C., 42-48 hours
[10] = test system: Clostridium sporogenes ATCC 19404; assay: MIC, anaerobic agar dilution (CLSI); settings: ATCC19404, 35° C., 42-48 hours
[11] = test system: Peptostreptococcus (magnus) ATCC 14956; assay: MIC, anaerobic agar dilution (CLSI); settings: Finegoldia magna, ATCC14956, 35° C., 42-48 hours
Atopobium vaginae BAA-55 = assay: MIC, anaerobic agar dilution (CLSI); settings: Fannyhessea vaginae, BAA55; Atopobium vaginae BAA-55; anaerobic, 35° C., 42-48 hours; read-out: MIC
[12] = test system: Bacteroides gracilis ATCC 33236; assay: MIC, anaerobic agar dilution (CLSI); settings: Campylobacter gracilis, ATCC33236; Bacteroides gracilis ATCC 33236; anaerobic, 35° C., 42-48 hours; read-out: MIC
[13] = test system: Lactobacillus gasseri ATCC 33323; assay: MIC, anaerobic agar dilution (CLSI); settings: ATCC33323; Lactobacillus gasseri ATCC 33323; anaerobic, 35° C., 42-48 hours; read-out: MIC
[14] = test system: Mobiluncus (mulieris) ATCC 35243; assay: MIC, anaerobic agar dilution (CLSI); settings: ATCC35243, 35° C., 42-48 hours
[15] = test system: Eubacterium (rectale) ATCC 33656; assay: MIC, anaerobic agar dilution (CLSI); settings: Agathobacter rectalis, ATCC33656, 35° C., 42-48 hours
[16] = test system: Clostridium perfringens (MET^R) MMX 3521; assay: microbe, parasite or virus in culture
[17] = test system: Lactobacillus crispatus ATCC 33820; assay: MIC, anaerobic agar dilution (CLSI); settings: ATCC33820; Lactobacillus crispatus ATCC 33820; anaerobic, 35° C., 42-48 hours; read-out: MIC
[18] = test system: Lactobacillus jensenii ATCC 25258; assay: MIC, anaerobic agar dilution (CLSI); settings: ATCC25258; Lactobacillus jensenii ATCC 25258; anaerobic, 35° C., 42-48 hours; read-out: MIC
[19] = test system: Peptococcus (niger) ATCC 27731; assay: MIC, anaerobic agar dilution (CLSI); settings: ATCC27731, 35° C., 42-48 hours
[20] = test system: Veionella parvula ATCC 17745; assay: MIC, anaerobic agar dilution (CLSI); settings: 35° C., 42-48 hours
[21] = test system: Gardnerella vaginalis ATCC 14018; assay: MIC, anaerobic agar dilution (CLSI); settings: ATCC14018, 35° C., 42-48 hours
[22] = test system: Actinomyces naeslundii ATCC 12104; assay: MIC, anaerobic agar dilution (CLSI); settings: ATCC12104, 35° C., 42-48 hours
[23] = test system: Prevotella asaccharolytica (MET^R) MMX 3552; assay: MIC, anaerobic agar dilution (CLSI); settings: 35° C., 42-48 hours
Gardnerella = assay: MIC, agar dilution, Gardnerella; settings: Gardnerella as major BV bacteria
[24] = test system: Bacteroides ovatus (MET^R) MMX 3504; assay: MIC, anaerobic agar dilution (CLSI); settings: 35° C., 42-48 hours
[25] = test system: Bacteroides fragilis (QC) ATCC 25285; assay: MIC, anaerobic agar dilution (CLSI); settings: ATCC25285, 35° C., 42-48 hours
[26] = test system: Treponema denticola ATCC 35405; assay: MIC, anaerobic agar dilution (CLSI); settings: ATCC35405, 35° C., 42-48 hours
[27] = test system: Prevotella bivia (MET^R) MMX 3454; assay: MIC, anaerobic agar dilution (CLSI); settings: 35° C., 42-48 hours
[28] = test system: Bacteroides thetaiotaomicron (MET^R) MMX 3409; assay: microbe, parasite or virus in culture; settings: Bacteroides thetaiotaomicron
[29] = test system: Peptostreptococcus anaerobius ATCC 27337; assay: MIC, anaerobic agar dilution (CLSI); settings: ATCC27337, 35° C., 42-48 hours
[30] = test system: Bacteroides fragilis (MET^R) MMX 3387; assay: MIC, anaerobic agar dilution (CLSI); settings: Bacteroides fragilis (MET^R) MMX 3387; anaerobic, 35° C., 42-48 hours; read-out: MIC
[31] = test system: Bifidobacterium (breve) ATCC 15698; assay: MIC, anaerobic agar dilution (CLSI); settings: ATCC15698, 35° C., 42-48 hours
[32] = test system: Peptoniphilus asaccharolyticus ATCC 29743; assay: MIC, anaerobic agar dilution (CLSI); settings: ATCC29743, 35° C., 42-48 hours
[33] = test system: Bacteroides vulgatus (MET^R) MMX 3490; assay: MIC, anaerobic agar dilution (CLSI); settings: Phocaeicola vulgatus; Bacteroides vulgatus (MET^R) MMX 3490; anaerobic, 35° C., 42-48 hours; read-out: MIC
[34] = test system: Prevotella bivia MMX 3450; assay: MIC, anaerobic agar dilution (CLSI); settings: MMX3450, 35° C., 42-48 hours
[35] = test system: Prevotella intermedia ATCC 25611; assay: MIC, anaerobic agar dilution (CLSI); settings: ATCC25611, 35° C., 42-48 hours
[36] = test system: Anaerococcus (Anaerococcus(prevotii)) ATCC 9321; assay: MIC, anaerobic agar dilution (CLSI); settings: 35° C., 42-48 hours
[37] = test system: Prevotella disiens MMX 3457; assay: MIC, anaerobic agar dilution (CLSI); settings: MMX3457, 35° C., 42-48 hours

Structure (SMILES): CO[C@H]1/C=C/O[C@@]2(C)Oc3c(C)c(O)c4c(O)c(c(/C=N/N5CCN(C)CC5)c(O)c4c3C2=O)NC(=O)/C(C)=C\C=C\[C@H](C)[C@H](O)[C@@H](C)[C@@H](O)[C@@H](C)[C@H](OC(C)=O)[C@@H]1C [Rifampicin]
- MIC [1]: 0.5 mg/L (≈ 0.608 µM)
- MIC [2]: 0.5 mg/L (≈ 0.608 µM)
- MIC [3]: 0.25 mg/L (≈ 0.304 µM)
- MIC [4]: 0.5 mg/L (≈ 0.608 µM)
- MIC [5]: 0.12 mg/L (≈ 0.146 µM)
- MIC [6]: 0.004 mg/L (≈ 0.00486 µM)
- MIC [7]: 0.5 mg/L (≈ 0.608 µM)
- MIC [8]: 0.5 mg/L (≈ 0.608 µM)
- MIC [9]: 1 mg/L (≈ 1.22 µM)
- MIC [10]: 1 mg/L (≈ 1.22 µM)
- MIC [11]: 1 mg/L (≈ 1.22 µM)
- MIC (Atopobium vaginae BAA-55): 0.25 mg/L (≈ 0.304 µM)
- MIC [12]: 16 mg/L (≈ 19.4 µM)
- MIC [13]: 0.25 mg/L (≈ 0.304 µM)
- MIC [14]: 0.004 mg/L (≈ 0.00486 µM)
- MIC [15]: 0.015 mg/L (≈ 0.0182 µM)
- MIC [16]: 1 mg/L (≈ 1.22 µM)
- MIC [17]: 2 mg/L (≈ 2.43 µM)
- MIC [18]: 0.5 mg/L (≈ 0.608 µM)
- MIC [19]: 0.004 mg/L (≈ 0.00486 µM)
- MIC [20]: 4 mg/L (≈ 4.86 µM)
- MIC [21]: 0.5 mg/L (≈ 0.608 µM)
- MIC [22]: 0.03 mg/L (≈ 0.0365 µM)
- MIC [23]: 0.004 mg/L (≈ 0.00486 µM)
- MIC (Gardnerella): 0.5 mg/L (≈ 0.608 µM)
- MIC [24]: 1 mg/L (≈ 1.22 µM)
- MIC [25]: 0.25 mg/L (≈ 0.304 µM)
- MIC [26]: 0.004 mg/L (≈ 0.00486 µM)
- MIC [27]: 0.004 mg/L (≈ 0.00486 µM)
- MIC [28]: 0.5 mg/L (≈ 0.608 µM)
- MIC [29]: 0.004 mg/L (≈ 0.00486 µM)
- MIC [30]: 0.25 mg/L (≈ 0.304 µM)
- MIC [31]: 0.25 mg/L (≈ 0.304 µM)
- MIC [32]: 0.004 mg/L (≈ 0.00486 µM)
- MIC [33]: 0.25 mg/L (≈ 0.304 µM)
- MIC [34]: 0.06 mg/L (≈ 0.0729 µM)
- MIC [35]: 0.12 mg/L (≈ 0.146 µM)
- MIC [36]: 0.03 mg/L (≈ 0.0365 µM)
- MIC [37]: 0.5 mg/L (≈ 0.608 µM)
